Results on three compounds are retold here after patent US9096524B2, “Anthelmintic agents and their use” (Intervet International B.V., priority 2009, dated 2015).

Where two headings read alike, the source gives them in different places.

Test [1] has as its system Haemonchus contortus. The test is described as follows: Efficacy against Haemonchus contortus in jirds. It counts as in vivo, jirds (Meriones unguiculatus). The note with it: 72 h, read-out: % Reduction in H. The gist of the method:
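Jirds orally infected with ~750-3,000 H. contortus L3 larvae were dosed once, orally or subcutaneously, at 2, 10 and/or 50 mg/kg on day 10 post-infection. Stomach larval burden was counted at necropsy 3 days post-treatment; efficacy is the reduction of mean count versus untreated infected controls.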

The subject of test [2] is A. galli (intestinal roundworm of chicken) larval stage 3; O. dentatum (nodular worm of swine) larval stages 3 and 4. In words: Activity against Ascaridia galli and Oesophagostomum dentatum larvae in vitro (minimum effective concentration). It counts as cell-based.
Test [3] relates to Haemonchus contortus larval stage 4, isolate with a resistance to benzimidazoles and ivermectin and anthelmintic-sensitive isolate. In words: Resistance-breaking activity against Haemonchus contortus L4 in vitro, resistant isolate compared with sensitive isolate. It counts as cell-based. The note with it: isolate resistant to benzimidazoles and ivermectin vs sensitive isolate. The protocol:
Anthelmintic resistance-breaking effects of compounds of this invention were tested in vitro using larval stage 4 (“L4”) of the parasitic nematode species Haemonchus contortus (Barber's pole worm in ruminants). One isolate of Haemonchus contortus with a resistance to benzimidazoles and ivermectin was tested in comparison to the anthelmintic-sensitive isolate of Haemonchus contortus. When conducting these experiments, various concentrations of the compounds were incubated in 96-well microtiter plates. Parasites were then distributed at 20 larvae per well. The anthelmintic effects were classified by microscopic examination. The microscopic examination included assessing mortality, damage, motility, progression of development, and neutral red uptake by the larvae in comparison to a DMSO-control and standard anthelmintics. The anthelmintic effects were defined by the minimum effective concentration (“MEC”).

Test [4] relates to Haemonchus contortus. The test is described as follows: Efficacy against Haemonchus contortus in sheep. The note with it: oral, single treatment, worm burden in abomasum 7 days after treatment. Format: in vivo. The protocol: Anthelmintic effects of compounds of this invention were tested in vivo using Haemonchus contortus in sheep. The sheep were orally infected with approximately 5,000 third-stage larvae of Haemonchus contortus. Thirty-five days after infection, the sheep in the treatment groups were treated once orally at a dose of 2, 5, 10, and/or 50 mg per kg bodyweight. Seven days after treatment, the sheep were necropsied, and the worm burden in the abomasum was determined. The efficacy was defined as the reduction of the mean worm count in the infected sheep of the treatment groups in comparison to the infected sheep in the untreated negative control group.

Where [5] appears, read: read-out: MEC (minimum effective concentration) against one or more of the tested nematodes, in vitro, one or more of A. galli L3, O. dentatum L3, L4, threshold 1 μM.
[6] abbreviates: read-out: MEC (minimum effective concentration) against one or more of the tested nematodes, in vitro, one or more of A. galli L3, O. dentatum L3, L4, threshold 7 μM.
The mark [7] stands for this setting: read-out: MEC (minimum effective concentration) against two or more of the tested nematodes, in vitro, two or more of A. galli L3, O. dentatum L3, L4, threshold 1 μM.

`O=C(CCCN1CCN(c2ccc(C(F)(F)F)cc2)CC1)N1CCC(Nc2ccc(SC(F)(F)F)cc2)CC1` [Example 48, 4-[4-(4-trifluoromethyl-phenyl)-piperazin-1-yl]-1-[4-(4-trifluoromethylsulfanyl-phenylamino)-piperidin-1-yl]-butan-1-one]: the inhibition in vivo at 10 mg/kg in the test on Haemonchus contortus [1] (po) stood at 99%; with Haemonchus contortus [1] (sc), 92%. Also, the values for the minimal effective concentration in test [2] (setting [5]), in test [2] (setting [6]) and in test [2] (setting [7]) were less than 1 µM, less than 7 µM and less than 1 µM, respectively. Besides, the “activity (MEC) against the resistant versus the sensitive isolate of Haemonchus contortus” value in test [3] was “the same activity against the resistant and the sensitive isolate”.

Turning to `CC(CN1CCN(c2ccc(C(F)(F)F)cc2)CC1)C(=O)N1CCC(Nc2ccc([N+](=O)[O-])c(C(F)(F)F)c2)CC1` (stereo not drawn) [Example 64, 2-methyl-1-[4-(4-nitro-3-trifluoromethyl-phenylamino)-piperidin-1-yl]-3-[4-(4-trifluoromethyl-phenyl)-piperazin-1-yl]-propan-1-one], the inhibition in vivo at 50 mg/kg with Haemonchus contortus [1] (po) and with Haemonchus contortus [1] (sc) was 100% in each case. The “% Reduction in H.” value in the test on Haemonchus contortus [4] (10 mg/kg) is reported as 75%. For the same compound, the results for the minimal effective concentration in test [2] (setting [5]), in test [2] (setting [6]) and in test [2] (setting [7]) were less than 1 µM, less than 7 µM and less than 1 µM, respectively. In addition, in test [3], the “activity (MEC) against the resistant versus the sensitive isolate of Haemonchus contortus” value was “the same activity against the resistant and the sensitive isolate”.

In the case of `N#Cc1ccc(NC2CCN(C(=O)CCN3CCN(c4ccc(Cl)cc4)CC3)CC2)cc1C(F)(F)F` [Example 325], the inhibition in vivo at 50 mg/kg with Haemonchus contortus [1] (po) was 92%; in the test on Haemonchus contortus [1] (sc), 97%. Moreover, the “% Reduction in H.” value in the test on Haemonchus contortus [4] (50 mg/kg) came to 96%. Also, the minimal effective concentration in test [2] (setting [7]) was less than 1 µM. The “activity (MEC) against the resistant versus the sensitive isolate of Haemonchus contortus” value in test [3] is “the same activity against the resistant and the sensitive isolate”.
